Numbered stars: 1 amine (or outer) side, 2 acyl side, 3 side chain; on linkers, the order of the positions; unused ones are H or OH. Square brackets hold non-standard residues; d marks the D form. Peptide text beside a SMILES is read from it. * marks the point of attachment. ξ: configuration not given here. X2 = N[C@@H](CO)C(=O)CN([C@@H](Cc1ccccc1)C(=O)[*:2])[*:1]; X3 = C[C@@H](c1ccccc1)[C@H](N[*:1])C(=O)[*:2]; NMe2Phe = CN(C)[C@@H](Cc1ccccc1)C(=O)*; NEtPhe = CCN[C@@H](Cc1ccccc1)C(=O)O; X1 = CCN(CC)[C@@H](Cc1ccccc1)C(=O)*; NMeF = CN[C@@H](Cc1ccccc1)C(=O)O; Tic = O=C(O)[C@@H]1Cc2ccccc2CN1; Aib = CC(C)(N)C(=O)O; Propionyl = CCC(=O)*; Butyryl = CCCC(=O)*; ξLac = CC(O)C(=O)O; For = O=C*
Organism: Homo sapiens
Test: Agonist activity in human platelet aggregation
Assay type: functional
Details: read-out: ED50 (the source's name)

EC50 [µM] | Compound
35 | CCC(=O)N[C@@H](Cc1ccccc1)C(=O)N[C@@H](CC(C)C)C(=O)N[C@@H](CC(C)C)C(=O)N[C@@H](CCCN=C(N)N)C(=O)N[C@@H](CC(N)=O)C(=O)O (Propionyl-FLLRN-OH)
> 1000 | CCN(CC)[C@@H](Cc1ccccc1)C(=O)N[C@@H](CC(C)C)C(=O)N[C@@H](CC(C)C)C(=O)N[C@@H](CCCN=C(N)N)C(=O)N[C@@H](CC(N)=O)C(=O)O (X1-LLRN-OH)
> 1000 | CC(C)C[C@H](NCC(=O)[C@H](Cc1ccccc1)NC(=O)[C@@H](N)CO)C(=O)N[C@@H](CC(C)C)C(=O)N[C@@H](CCCN=C(N)N)C(=O)N[C@@H](CC(N)=O)C(=O)O
> 1000 | CC(C)C[C@H](NC(=O)[C@H](CC(C)C)NC(=O)[C@H](Cc1ccccc1)N(C)C(=O)[C@@H](N)CO)C(=O)N[C@@H](CCCN=C(N)N)C(=O)N[C@@H](CC(N)=O)C(=O)O
169 | CC(C)C[C@H](NC(=O)[C@H](CC(C)C)NC(=O)[C@](C)(Cc1ccccc1)NC(=O)[C@@H](N)CO)C(=O)N[C@@H](CCCN=C(N)N)C(=O)N[C@@H](CC(N)=O)C(=O)O
> 1000 | CC(C)C[C@H](NC(=O)[C@H](CC(C)C)NC(=O)[C@H](Cc1ccccc1)N(C)C)C(=O)N[C@@H](CCCN=C(N)N)C(=O)N[C@@H](CC(N)=O)C(=O)O (NMe2Phe-LLRN-OH)
14.8 | H-SFGLRN-OH
75.1 | CCCC(=O)N[C@@H](Cc1ccccc1)C(=O)N[C@@H](CC(C)C)C(=O)N[C@@H](CC(C)C)C(=O)N[C@@H](CCCN=C(N)N)C(=O)N[C@@H](CC(N)=O)C(=O)O (Butyryl-FLLRN-OH)
2 | CC(C)C[C@H](NC(=O)[C@H](CC(C)C)NC(=O)[C@@H](NC(=O)[C@@H](N)CO)[C@H](C)c1ccccc1)C(=O)N[C@@H](CCCN=C(N)N)C(=O)N[C@@H](CC(N)=O)C(=O)O
4.6 | CC(C)C[C@H](NC(=O)[C@@H]1Cc2ccccc2CN1C(=O)[C@H](Cc1ccccc1)NC(=O)[C@@H](N)CO)C(=O)N[C@@H](CCCN=C(N)N)C(=O)N[C@@H](CC(N)=O)C(=O)O (H-SF[Tic]LRN-OH)
> 1000 | CCN[C@@H](Cc1ccccc1)C(=O)N[C@@H](CC(C)C)C(=O)N[C@@H](CC(C)C)C(=O)N[C@@H](CCCN=C(N)N)C(=O)N[C@@H](CC(N)=O)C(=O)O (H-[NEtPhe]LLRN-OH)
0.92 | CC(C)C[C@H](NC(=O)[C@H](CC(C)C)NC(=O)[C@H](Cc1ccccc1)NC(=O)[C@@H](N)CO)C(=O)N[C@@H](CCCN=C(N)N)C(=O)N[C@@H](CC(N)=O)C(=O)O
1.6 | CC(C)C[C@H](NC(=O)[C@H]1CCCN1C(=O)[C@@H](NC(=O)[C@@H](N)CO)[C@H](C)c1ccccc1)C(=O)N[C@@H](CCCN=C(N)N)C(=O)N[C@@H](CC(N)=O)C(=O)O
216 | CC(C)C[C@H](NC(=O)[C@H]1CCCN1C(=O)[C@@H](NC(=O)[C@@H](N)CO)[C@@H](C)c1ccccc1)C(=O)N[C@@H](CCCN=C(N)N)C(=O)N[C@@H](CC(N)=O)C(=O)O
27 | CC(C)C[C@H](NC(=O)[C@H](CC(C)C)NC(=O)[C@@H](NC(=O)[C@@H](N)CO)[C@@H](C)c1ccccc1)C(=O)N[C@@H](CCCN=C(N)N)C(=O)N[C@@H](CC(N)=O)C(=O)O (H-S[X3]LLRN-OH)
49 | CNC(=O)C[C@H](NC(=O)[C@H](CCCN=C(N)N)NC(=O)[C@H](CC(C)C)NC(=O)[C@H](CC(C)C)NC(=O)[C@H](Cc1ccccc1)NC(=O)C(C)O)C(=O)O (some centres undefined) (H-[ξLac]FLLRD(NHMe)-OH)
5.3 | CC(C)C[C@H](NC(=O)[C@H]1CCCN1C(=O)[C@H](Cc1ccccc1)NC(=O)[C@@H](N)CO)C(=O)N[C@@H](CCCN=C(N)N)C(=O)N[C@@H](CC(N)=O)C(=O)O
> 1000 | CN[C@@H](Cc1ccccc1)C(=O)N[C@@H](CC(C)C)C(=O)N[C@@H](CC(C)C)C(=O)N[C@@H](CCCN=C(N)N)C(=O)N[C@@H](CC(N)=O)C(=O)O (H-[NMeF]LLRN-OH)
62.4 | CC(C)C[C@H](NC(=O)[C@H](Cc1ccccc1)NC=O)C(=O)N[C@@H](CC(C)C)C(=O)N[C@@H](CCCN=C(N)N)C(=O)N[C@@H](CC(N)=O)C(=O)O (For-FLLRN-OH)
84.5 | Ac-FLLRN-OH
382 | CC(C)C[C@H](NC(=O)[C@H](Cc1ccccc1)NCC(=O)[C@@H](N)CO)C(=O)N[C@@H](CC(C)C)C(=O)N[C@@H](CCCN=C(N)N)C(=O)N[C@@H](CC(N)=O)C(=O)O (H-[X2]LLRN-OH)
> 1000 | CC(C)C[C@H](NC(=O)[C@H](CC(C)C)NC(=O)[C@@H]1Cc2ccccc2CN1C(=O)[C@@H](N)CO)C(=O)N[C@@H](CCCN=C(N)N)C(=O)N[C@@H](CC(N)=O)C(=O)O (H-S[Tic]LLRN-OH)
> 1000 | CC(C)C[C@H](NC(=O)C(C)(C)NC(=O)[C@H](Cc1ccccc1)NC(=O)[C@@H](N)CO)C(=O)N[C@@H](CCCN=C(N)N)C(=O)N[C@@H](CC(N)=O)C(=O)O (H-SF[Aib]LRN-OH)
70 | CC(C)C[C@H](NC(=O)[C@H](CC(C)C)N(C)C(=O)[C@H](Cc1ccccc1)NC(=O)[C@@H](N)CO)C(=O)N[C@@H](CCCN=C(N)N)C(=O)N[C@@H](CC(N)=O)C(=O)O

Reference: ChEMBL document CHEMBL1151541, “Modified thrombin receptor-agonist peptide ligands. Synthesis and conformational analysis of analogs of the N-terminal tripeptide region” (1995)
